Data from US20020028788A1, “Vaginal active agent delivery procedures and formulations thereof” (priority 1998, published 2002).
Marks after values point to notes of the source that are not given here.

Tests used:
[1] = system: cattle; test: Follicular dynamics and oestrus following vaginal oestradiol 17β or intramuscular oestradiol benzoate; type: in vivo; conditions: for Follicle wave turnover (i.e. DF3) / No follicle wave turnover (i.e. no DF3): number of animals
[2] = Plasma oestradiol concentration and pharmacokinetics following vaginal or intramuscular administration; type: in vivo; conditions: cattle, oestradiol benzoate
Experimental: Error bars are standard error means (n=3).
FIG. 2 is a plasma oestradiol concentrations following vaginal administration of 10 mg oestradiol benzoate (open square), 10 mg oestradiol benzoate with 1:1 molar ratio β-cyclodextrin (open diamond), 10 mg oestradiol benzoate with 1:1 molar ratio hydroxypropyl β-cyclodextrin (open circle) or 10 mg oestradiol benzoate with 1:1 molar ratio γ-cyclodextrin (open triangle). Error bars are standard error means (n=4).
Error bars are standard error means (n=4).

[3] = system: cattle; conditions: past attempts; vaginal administration by capsule; doses typically 10 times higher than intra-muscular; cited from earlier work
[4] = 2.5 mg oestradiol 17β, vaginal administration
[5] = 5.0 mg oestradiol 17β, vaginal administration
[6] = 2.5 mg oestradiol 17β, vaginal administration, group n = 8
[7] = 5.0 mg oestradiol 17β, vaginal administration, group n = 8
[8] = 2 mg oestradiol benzoate, intramuscular administration
[9] = 2 mg oestradiol benzoate, intramuscular administration, group n = 7

**Q.** What does the source list for `C[C@]12CC[C@@H]3c4ccc(O)cc4CC[C@H]3[C@@H]1CC[C@@H]2O` [oestradiol 17β]?
**A.** Age of ovulatory DF2 [1, 4]: 12.0 ± 0.6 ^ d; Age of ovulatory DF3 [1, 4]: 6 days; Day DF2 emerged [1, 4]: 9.9 ± 0.4^a; Diameter DF2 on Day 13 [1, 4]: 9.9 ± 0.5^a mm; Diameter of ovulatory DF2 [1, 4]: 15.6 ± 0.7 ^ mm; Diameter of ovulatory DF3 [1, 4]: 12 mm; Growth of DF2 from Day 13-17 [1, 4]: 2.4 ± 0.6^a mm; Day of oestrus ([1]; 2.5 mg oestradiol 17β, vaginal administration, n = 7): 22.0 ± 0.0 (n = 7); Age of ovulatory DF2 [1, 5]: 11.5 ± 0.5 ^ d; Age of ovulatory DF3 [1, 5]: 7.0 ± 0.5^ d; Day DF2 emerged [1, 5]: 10.0 ± 0.6^a; Day DF3 emerged [1, 5]: 15.7 ± 0.6 ^; Diameter DF2 on Day 13 [1, 5]: 9.3 ± 0.8^a mm; Diameter of ovulatory DF2 [1, 5]: 17.0 ± 1.0 ^ mm; Diameter of ovulatory DF3 [1, 5]: 13.7 ± 0.7 ^ mm; Growth of DF2 from Day 13-17 [1, 5]: 0.9 ± 0.8^ab mm; Day of oestrus ([1]; 5.0 mg oestradiol 17β, vaginal administration, n = 8): 22.0 ± 0.0 (n = 8); Follicle wave turnover (i.e. DF3) [1, 6]: 3; No follicle wave turnover (i.e. no DF3) [1, 6]: 5; Follicle wave turnover (i.e. DF3) [1, 7]: 6; No follicle wave turnover (i.e. no DF3) [1, 7]: 2; influence on follicular dynamics ([1]; vaginal administration, 5 mg oestradiol 17β and γ-cyclodextrin in molar ratio 0.5:1, compared with i.m. 2 mg oestradiol benzoate): influences follicular dynamics in a similar manner

**Q.** Which “absorption following vaginal administration” value [2] does the source give for `C[C@]12CC[C@@H]3c4ccc(OC(=O)c5ccccc5)cc4CC[C@H]3[C@@H]1CC[C@@H]2O` [oestradiol benzoate] here?
**A.** poor and variable absorption

**Q.** And the “Age of ovulatory DF3” value [1, 8]?
**A.** 6.0 ± 0.5^ d

**Q.** And the “Day DF2 emerged” value [1, 8]?
**A.** 9.6 ± 0.6^a

**Q.** What about the “Day DF3 emerged” value [1, 8] of the same compound?
**A.** 17.0 ± 0.4 ^

**Q.** And the “Diameter DF2 on Day 13” value [1, 8]?
**A.** 9.6 ± 1.0^a mm

**Q.** What about the “Diameter of ovulatory DF3” value [1, 8] of the same compound?
**A.** 14.2 ± 0.4 ^ mm

**Q.** What about the “Growth of DF2 from Day 13-17” value [1, 8] of the same compound?
**A.** −0.6 ± 0.7^b mm

**Q.** And the Day of oestrus ([1]; 2 mg oestradiol benzoate, intramuscular administration, n = 7)?
**A.** 22.6 ± 0.2 (n = 7)

**Q.** What about the “Follicle wave turnover (i.e. DF3)” value [1, 9] of the same compound?
**A.** 6

**Q.** What about the “No follicle wave turnover (i.e. no DF3)” value [1, 9] of the same compound?
**A.** 1

**Q.** What about the “oestrus expression and fertility” value [3] of the same compound?
**A.** poor oestrus expression and poor fertility
